Results on three compounds are retold here after ChEMBL document CHEMBL5696442, “Discovery of type II inhibitors of TGFβ-activated kinase 1 (TAK1) and mitogen-activated protein kinase kinase kinase kinase 2 (MAP4K2)” (J Med Chem, 2015).

Active and inactive are the calls of the source. The calls are words filed in the database; no cut-off is given here.

Test [1] deals with Ribosomal protein S6 kinase alpha-1 (Homo sapiens) (UniProt Q15418). Briefly: Inhibition of RSK1 domain2 Lys2 labeling site in human Huh-7 cell lysate at 1 uM by KiNativ Profiling analysis relative to control. Format: subcellular.
Test [2] has as its target Ribosomal protein S6 kinase beta-2 (Homo sapiens) (UniProt Q9UBS0). Briefly: Inhibition of p70S6Kb Lys2 labeling site in human Huh-7 cell lysate at 1 uM by KiNativ Profiling analysis relative to control. It is filed as subcellular.
For test [3], the target named is Myosin light chain kinase, smooth muscle (Homo sapiens) (UniProt Q15746). The experiment in a line: Inhibition of smMLCK Lys2 labeling site in human Huh-7 cells at 1 uM by KiNativ Profiling analysis relative to control. Format: cell-based.
The target in test [4] is Casein kinase I isoform delta (Homo sapiens) (UniProt P48730). The experiment in a line: Inhibition of CK1d Lys2 labeling site in human Huh-7 cells at 1 uM by KiNativ Profiling analysis relative to control. It is filed as cell-based.
Chain of Casein kinase I isoform delta (Homo sapiens) (P48730 whole entry, looked up, canonical isoform): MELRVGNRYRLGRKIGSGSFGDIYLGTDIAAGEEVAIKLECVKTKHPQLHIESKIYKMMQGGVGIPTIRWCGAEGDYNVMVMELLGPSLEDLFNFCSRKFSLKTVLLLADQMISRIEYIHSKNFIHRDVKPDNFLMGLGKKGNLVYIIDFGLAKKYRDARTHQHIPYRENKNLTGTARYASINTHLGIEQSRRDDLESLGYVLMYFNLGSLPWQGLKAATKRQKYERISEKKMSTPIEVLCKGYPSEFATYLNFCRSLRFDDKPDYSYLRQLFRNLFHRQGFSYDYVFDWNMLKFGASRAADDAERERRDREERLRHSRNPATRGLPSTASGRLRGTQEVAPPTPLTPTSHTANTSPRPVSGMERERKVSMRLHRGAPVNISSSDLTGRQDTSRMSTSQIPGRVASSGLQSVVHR
Test [5] addresses Serine/threonine-protein kinase VRK2 (Homo sapiens) (UniProt Q86Y07). The experiment in a line: Inhibition of VRK2 Lys2 labeling site in human A-375 cells at 0.05 uM by KiNativ Profiling analysis relative to control. It is filed as cell-based.
Test [6] deals with Casein kinase I isoform gamma-3 (Homo sapiens) (UniProt Q9Y6M4). The experiment in a line: Inhibition of CSNK1G3 (unknown origin) at 1 uM by Ambit Kinomescan binding assay relative to control.
The target in test [7] is T1, Phosphatidylinositol 5-phosphate 4-kinase type-2 gamma (Homo sapiens) (UniProt Q8TBX8).
T1 sequence (whole entry): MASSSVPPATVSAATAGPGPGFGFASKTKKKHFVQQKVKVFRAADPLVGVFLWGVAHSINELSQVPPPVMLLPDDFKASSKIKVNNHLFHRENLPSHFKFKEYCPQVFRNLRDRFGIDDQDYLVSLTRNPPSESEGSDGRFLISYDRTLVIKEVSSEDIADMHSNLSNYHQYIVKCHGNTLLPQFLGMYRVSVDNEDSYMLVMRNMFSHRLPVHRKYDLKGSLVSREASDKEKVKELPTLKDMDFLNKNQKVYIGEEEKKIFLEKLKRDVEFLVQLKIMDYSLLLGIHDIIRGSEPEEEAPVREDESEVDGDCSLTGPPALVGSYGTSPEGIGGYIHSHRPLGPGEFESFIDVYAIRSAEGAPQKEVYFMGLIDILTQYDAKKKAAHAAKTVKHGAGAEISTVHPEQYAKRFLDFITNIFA
The experiment in a line: Inhibition of PIP4K2C ATP labeling site harbouring TLVIKEVSSEDIADMHSNLSNYHQYIVK in human A-375 cells at 0.5 uM by KiNativ Profiling analysis relative to control. Format: cell-based.

Test [8] has as its target High affinity nerve growth factor receptor (Homo sapiens) (UniProt P04629). Briefly: Inhibition of TRKA (unknown origin) at 1 uM by Ambit Kinomescan binding assay relative to control.
The target in test [9] is Platelet-derived growth factor receptor beta (Homo sapiens) (UniProt P09619). The experiment in a line: Inhibition of PDGFRB (unknown origin) at 1 uM by Ambit Kinomescan binding assay relative to control.
Chain of Platelet-derived growth factor receptor beta (Homo sapiens) (P09619 whole entry): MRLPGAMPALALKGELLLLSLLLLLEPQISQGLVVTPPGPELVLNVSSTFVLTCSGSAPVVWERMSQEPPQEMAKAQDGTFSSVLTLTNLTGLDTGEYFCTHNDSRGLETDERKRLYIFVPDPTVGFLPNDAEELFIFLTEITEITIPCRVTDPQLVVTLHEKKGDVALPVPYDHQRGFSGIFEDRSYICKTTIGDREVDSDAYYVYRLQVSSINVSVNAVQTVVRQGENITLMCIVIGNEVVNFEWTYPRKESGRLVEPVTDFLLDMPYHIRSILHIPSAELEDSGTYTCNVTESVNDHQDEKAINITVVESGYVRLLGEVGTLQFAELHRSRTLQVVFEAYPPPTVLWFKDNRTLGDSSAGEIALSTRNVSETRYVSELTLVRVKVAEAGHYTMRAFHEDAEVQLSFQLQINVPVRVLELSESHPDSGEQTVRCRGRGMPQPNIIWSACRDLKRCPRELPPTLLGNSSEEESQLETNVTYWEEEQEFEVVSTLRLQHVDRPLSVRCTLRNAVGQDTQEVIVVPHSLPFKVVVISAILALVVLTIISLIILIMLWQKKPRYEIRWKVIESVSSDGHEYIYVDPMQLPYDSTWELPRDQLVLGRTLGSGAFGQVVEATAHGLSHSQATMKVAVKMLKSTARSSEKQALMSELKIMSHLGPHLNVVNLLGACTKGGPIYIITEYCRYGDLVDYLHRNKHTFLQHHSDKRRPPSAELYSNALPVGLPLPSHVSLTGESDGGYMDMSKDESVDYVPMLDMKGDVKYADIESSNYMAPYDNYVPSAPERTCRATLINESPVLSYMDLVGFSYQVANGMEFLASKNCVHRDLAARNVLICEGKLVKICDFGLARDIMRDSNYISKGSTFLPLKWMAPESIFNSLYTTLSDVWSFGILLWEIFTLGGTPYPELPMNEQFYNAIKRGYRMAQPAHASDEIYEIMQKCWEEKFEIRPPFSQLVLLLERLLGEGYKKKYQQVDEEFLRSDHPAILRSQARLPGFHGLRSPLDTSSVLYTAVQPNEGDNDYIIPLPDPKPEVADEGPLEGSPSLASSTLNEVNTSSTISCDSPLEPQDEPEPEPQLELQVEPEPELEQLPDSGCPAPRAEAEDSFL
Test [10] deals with Tyrosine-protein kinase ABL1 (Homo sapiens), P00519 [Y253F]. Briefly: Inhibition of phosphorylated ABL1 Y253F mutant (unknown origin) at 1 uM by Ambit Kinomescan binding assay relative to control; values are per cent of control.
The nature of test [11]: Inhibition of PKD1/2 K2 labeling site in human Huh-7 cells at 1 uM by KiNativ Profiling analysis relative to control. Conditions: condition cancer.
For test [12], the target named is 3-phosphoinositide-dependent protein kinase 1 (Homo sapiens) (UniProt O15530). Briefly: Inhibition of PDPK1 (unknown origin) at 10 uM by Ambit Kinomescan binding assay.
Test [13] has as its target T2, Mitogen-activated protein kinase kinase kinase 3 (Homo sapiens) (UniProt Q99759).
T2 sequence (whole entry): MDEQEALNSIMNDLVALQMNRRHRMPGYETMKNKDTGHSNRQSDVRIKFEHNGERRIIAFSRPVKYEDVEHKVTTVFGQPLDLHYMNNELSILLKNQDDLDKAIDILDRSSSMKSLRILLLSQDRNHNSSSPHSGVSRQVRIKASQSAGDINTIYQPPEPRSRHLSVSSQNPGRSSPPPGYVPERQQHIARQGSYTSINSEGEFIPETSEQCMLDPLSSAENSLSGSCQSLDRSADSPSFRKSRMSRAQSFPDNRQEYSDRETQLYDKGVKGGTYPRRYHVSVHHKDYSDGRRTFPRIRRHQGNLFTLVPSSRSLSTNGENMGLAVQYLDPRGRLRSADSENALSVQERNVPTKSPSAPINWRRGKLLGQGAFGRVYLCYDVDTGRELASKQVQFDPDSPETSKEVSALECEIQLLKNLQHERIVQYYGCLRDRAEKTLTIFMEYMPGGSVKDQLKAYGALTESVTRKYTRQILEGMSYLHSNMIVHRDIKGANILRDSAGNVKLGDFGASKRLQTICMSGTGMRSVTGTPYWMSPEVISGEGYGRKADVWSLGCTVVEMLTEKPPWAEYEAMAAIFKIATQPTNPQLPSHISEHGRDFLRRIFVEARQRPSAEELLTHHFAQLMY
Briefly: Inhibition of MAP3K3 Lys2 labeling site in human A-375 cells at 0.5 uM by KiNativ Profiling analysis relative to control. It is filed as cell-based.

Test [14] is described as follows: Inhibition of TLK1/2 K2 labeling site in human Huh-7 cells at 1 uM by KiNativ Profiling analysis relative to control. Particulars: condition cancer.
Test [15] addresses Protein kinase C epsilon type (Homo sapiens) (UniProt Q02156). Briefly: Inhibition of PRKCE (unknown origin) at 10 uM by Ambit Kinomescan binding assay relative to control.
Test [16] addresses Calcium/calmodulin-dependent protein kinase type 1 (Homo sapiens) (UniProt Q14012). The experiment in a line: Inhibition of CaMK1a K1 labeling site in human Huh-7 cells at 10 uM by KiNativ Profiling analysis relative to control. It is filed as cell-based.
In test [17] the target is Serine/threonine-protein kinase N2 (Homo sapiens) (UniProt Q16513). Briefly: Inhibition of PKN2 Lys2 labeling site in human A-375 cells at 0.5 uM by KiNativ Profiling analysis relative to control. It is filed as cell-based.
Chain of Serine/threonine-protein kinase N2 (Homo sapiens) (Q16513 whole entry, looked up): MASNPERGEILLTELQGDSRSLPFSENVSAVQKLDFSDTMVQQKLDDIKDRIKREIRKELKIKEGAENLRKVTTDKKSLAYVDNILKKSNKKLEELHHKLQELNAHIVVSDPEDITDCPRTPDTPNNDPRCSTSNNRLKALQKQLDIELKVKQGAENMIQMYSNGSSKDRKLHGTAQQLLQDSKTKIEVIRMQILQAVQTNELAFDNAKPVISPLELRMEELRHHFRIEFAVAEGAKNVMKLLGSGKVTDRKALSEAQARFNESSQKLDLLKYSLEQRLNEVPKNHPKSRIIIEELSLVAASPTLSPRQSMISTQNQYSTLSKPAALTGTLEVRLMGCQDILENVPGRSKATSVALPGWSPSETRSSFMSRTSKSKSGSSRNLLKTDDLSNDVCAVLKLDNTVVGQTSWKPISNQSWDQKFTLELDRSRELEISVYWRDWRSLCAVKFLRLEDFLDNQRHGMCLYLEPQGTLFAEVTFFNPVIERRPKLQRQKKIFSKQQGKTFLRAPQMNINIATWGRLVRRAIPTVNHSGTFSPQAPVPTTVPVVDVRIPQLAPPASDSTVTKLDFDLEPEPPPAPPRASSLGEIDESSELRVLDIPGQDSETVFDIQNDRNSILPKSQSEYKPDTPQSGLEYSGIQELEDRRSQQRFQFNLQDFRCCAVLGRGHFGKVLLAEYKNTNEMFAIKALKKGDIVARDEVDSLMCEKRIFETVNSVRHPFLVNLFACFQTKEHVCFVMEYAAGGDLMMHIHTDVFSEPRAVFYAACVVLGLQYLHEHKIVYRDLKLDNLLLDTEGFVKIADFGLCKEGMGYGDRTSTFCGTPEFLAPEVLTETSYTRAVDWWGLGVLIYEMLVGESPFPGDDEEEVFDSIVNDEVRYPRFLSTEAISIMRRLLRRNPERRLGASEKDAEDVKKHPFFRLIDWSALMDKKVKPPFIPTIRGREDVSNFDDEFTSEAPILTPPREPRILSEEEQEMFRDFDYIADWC
Test [18] has as its target Receptor tyrosine-protein kinase erbB-4 (Homo sapiens) (UniProt Q15303). Briefly: Inhibition of ERBB4 (unknown origin) at 10 uM by Ambit Kinomescan binding assay.
Test [19] addresses Ephrin type-B receptor 1 (Homo sapiens) (UniProt P54762). The experiment in a line: Inhibition of EPHB1 (unknown origin) at 10 uM by Ambit Kinomescan binding assay.
For a further test, the system named is 293-IL-1R. Briefly: Inhibition of IL-1alpha induced p38 phosphorylation level in human 293-IL-1R cells preincubated for 1 hr followed by IL-1 alpha stimulation and measured after 30 mins by Western blot analysis. It is filed as functional, cell-based. Particulars: dose 0.01-10 µM. In general terms: A western blot detects proteins with antibodies after separation by electrophoresis.

Chain of Receptor tyrosine-protein kinase erbB-4 (Homo sapiens) (Q15303 whole entry): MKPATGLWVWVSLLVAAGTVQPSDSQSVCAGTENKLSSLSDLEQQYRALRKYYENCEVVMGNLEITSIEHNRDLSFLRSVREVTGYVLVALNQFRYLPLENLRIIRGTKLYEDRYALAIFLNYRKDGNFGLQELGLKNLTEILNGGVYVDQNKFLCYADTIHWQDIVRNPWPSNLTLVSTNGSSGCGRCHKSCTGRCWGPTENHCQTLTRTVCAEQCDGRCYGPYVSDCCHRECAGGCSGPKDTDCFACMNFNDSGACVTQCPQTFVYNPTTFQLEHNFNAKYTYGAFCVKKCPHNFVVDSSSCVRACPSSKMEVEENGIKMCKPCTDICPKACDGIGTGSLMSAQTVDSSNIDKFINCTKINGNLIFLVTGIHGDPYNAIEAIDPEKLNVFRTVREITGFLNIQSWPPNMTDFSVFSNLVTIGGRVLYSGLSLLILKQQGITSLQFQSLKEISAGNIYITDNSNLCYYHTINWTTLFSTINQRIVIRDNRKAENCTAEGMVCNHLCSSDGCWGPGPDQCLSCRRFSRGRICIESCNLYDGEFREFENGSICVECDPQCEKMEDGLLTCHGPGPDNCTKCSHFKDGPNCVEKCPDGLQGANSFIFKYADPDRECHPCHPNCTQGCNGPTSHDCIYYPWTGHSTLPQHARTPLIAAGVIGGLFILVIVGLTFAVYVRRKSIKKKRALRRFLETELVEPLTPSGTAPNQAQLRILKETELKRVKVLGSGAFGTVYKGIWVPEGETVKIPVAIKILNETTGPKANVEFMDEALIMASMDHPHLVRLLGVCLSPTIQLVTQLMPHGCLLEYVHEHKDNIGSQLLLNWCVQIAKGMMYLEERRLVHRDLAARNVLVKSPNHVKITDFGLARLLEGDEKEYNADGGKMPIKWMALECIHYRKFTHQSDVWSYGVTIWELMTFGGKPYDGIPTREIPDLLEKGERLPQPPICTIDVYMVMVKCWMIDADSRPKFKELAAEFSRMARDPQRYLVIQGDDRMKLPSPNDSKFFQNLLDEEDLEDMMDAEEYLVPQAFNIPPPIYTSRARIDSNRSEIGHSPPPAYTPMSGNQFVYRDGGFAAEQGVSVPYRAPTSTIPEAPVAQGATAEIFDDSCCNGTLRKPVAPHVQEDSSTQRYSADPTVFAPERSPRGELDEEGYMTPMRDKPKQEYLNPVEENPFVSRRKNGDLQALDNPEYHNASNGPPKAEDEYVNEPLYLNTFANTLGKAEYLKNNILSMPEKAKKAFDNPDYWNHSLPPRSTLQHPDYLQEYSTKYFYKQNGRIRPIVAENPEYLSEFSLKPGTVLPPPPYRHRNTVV
Chain of Serine/threonine-protein kinase VRK2 (Homo sapiens) (Q86Y07 whole entry, canonical isoform): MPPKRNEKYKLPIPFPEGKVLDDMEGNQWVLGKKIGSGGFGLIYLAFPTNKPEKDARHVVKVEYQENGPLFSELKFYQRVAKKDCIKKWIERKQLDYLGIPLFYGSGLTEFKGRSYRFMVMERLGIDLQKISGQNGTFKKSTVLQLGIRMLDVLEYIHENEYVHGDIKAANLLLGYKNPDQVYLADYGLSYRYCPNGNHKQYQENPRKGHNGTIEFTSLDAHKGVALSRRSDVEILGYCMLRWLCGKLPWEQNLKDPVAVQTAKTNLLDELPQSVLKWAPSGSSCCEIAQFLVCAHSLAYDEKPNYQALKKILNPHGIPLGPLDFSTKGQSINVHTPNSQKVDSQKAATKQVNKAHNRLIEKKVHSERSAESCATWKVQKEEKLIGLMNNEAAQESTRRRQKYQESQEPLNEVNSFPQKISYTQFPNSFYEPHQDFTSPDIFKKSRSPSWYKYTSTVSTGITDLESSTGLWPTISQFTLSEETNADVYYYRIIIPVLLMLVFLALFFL
Chain of High affinity nerve growth factor receptor (Homo sapiens) (P04629 33-796 limits assumed): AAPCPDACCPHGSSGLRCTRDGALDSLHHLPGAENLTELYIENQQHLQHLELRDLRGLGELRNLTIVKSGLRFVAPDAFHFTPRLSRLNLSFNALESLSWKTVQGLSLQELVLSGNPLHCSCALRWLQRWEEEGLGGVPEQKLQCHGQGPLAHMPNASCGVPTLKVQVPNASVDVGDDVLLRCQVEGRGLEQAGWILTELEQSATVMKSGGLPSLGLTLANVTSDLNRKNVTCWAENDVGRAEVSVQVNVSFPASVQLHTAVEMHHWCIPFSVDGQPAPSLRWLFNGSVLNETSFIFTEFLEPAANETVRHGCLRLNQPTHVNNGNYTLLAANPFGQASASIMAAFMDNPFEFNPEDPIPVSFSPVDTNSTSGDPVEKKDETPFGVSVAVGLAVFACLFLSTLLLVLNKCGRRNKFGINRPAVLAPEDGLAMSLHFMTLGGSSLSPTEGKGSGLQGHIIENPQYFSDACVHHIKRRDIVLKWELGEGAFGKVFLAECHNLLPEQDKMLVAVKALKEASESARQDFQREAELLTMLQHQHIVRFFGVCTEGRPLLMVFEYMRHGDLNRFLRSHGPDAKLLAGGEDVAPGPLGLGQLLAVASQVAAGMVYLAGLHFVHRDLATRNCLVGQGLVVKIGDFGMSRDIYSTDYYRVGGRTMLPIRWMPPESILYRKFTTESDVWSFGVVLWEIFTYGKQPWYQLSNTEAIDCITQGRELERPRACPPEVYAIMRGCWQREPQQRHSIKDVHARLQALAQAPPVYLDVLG

On to `CNc1cc(Oc2cc(C(=O)Nc3cc(N4CCN(C)CC4)cc(C(F)(F)F)c3)ccc2C)ncn1`, for which the inhibition (commonly the relative decrease from the control value, in per cent) is -2% in test [1], -8.4% in [2], 34.3% in test [3] and 39.1% in test [4].
Regarding `CCN1CCN(Cc2ccc(NC(=O)c3ccc(C)c(/C=C/c4cnc5[nH]ccc5c4OC)c3)cc2C(F)(F)F)CC1`, the inhibition is 28.7% in test [5]; 71% in test [6]; 5.9% in test [7]; 54% in [8]; 0.1% in test [9]. In addition, the percent of control in [10] is 0.75%.
`CCN1CCN(Cc2ccc(NC(=O)c3ccc(C)c(Oc4ccnc5[nH]ccc45)c3)cc2C(F)(F)F)CC1`: the inhibition at 1 µM in [11] was -9.2%; in [14] it was -1.1%. The inhibition entry in test [12] and in test [19] was “inactive” in each case. For the same compound, the inhibition was 2.8% in test [13]; 20% in test [15]; 48.2% in [16]; -5.6% in test [17]; 28% in test [18]; “Dose-Dependent Effect” in the test with 293-IL-1R.
